Data published in US11504367B2, “Compounds and methods for treating oxalate-related diseases” (OxaluRx, Inc., priority 2019, dated 2022).

Biological target: recombinant full-length human hydroxyacid oxidase 1 (HAO1), the equivalents of hGOX (Homo sapiens (Human), UniProt Q9UJM8)
Assay: In-vitro human glycolate oxidase (hGOX) assay (Amplex red fluorescence)
Format: biochemical
Settings: 6 nM recombinant human GO, 85 μM glycolate, 10 min preincubation
Description: The in-vitro glycolate oxidase assay was performed using recombinant full-length human hydroxyacid oxidase 1 (HAO1), the equivalents of hGOX. […] Purified HAO1 was dissolved in assay buffer consisting of 10 mM NaCl, 110 mM KCl, 2 mM MgCl2, 50 mM HEPES (pH 7.4), and 0.01% Triton™ X-100.
The plates were incubated for 10 min at room temperature, at which point Amplex red reagent (50 μM) was added.
The fluorescence intensity signal was measured on a VariosKan LUX instrument using an excitation of 560 nm and an emission of 590 nm. The IC50 values were calculated using Graphpad Prism. The fluorescence signal of wells containing only DMSO was defined as 100% GO activity, while the fluorescence signal without the glycolate substrate was defined as 0% GO activity.

recombinant full-length human hydroxyacid oxidase 1 (HAO1), the equivalents of hGOX, sequence (Q9UJM8 whole entry): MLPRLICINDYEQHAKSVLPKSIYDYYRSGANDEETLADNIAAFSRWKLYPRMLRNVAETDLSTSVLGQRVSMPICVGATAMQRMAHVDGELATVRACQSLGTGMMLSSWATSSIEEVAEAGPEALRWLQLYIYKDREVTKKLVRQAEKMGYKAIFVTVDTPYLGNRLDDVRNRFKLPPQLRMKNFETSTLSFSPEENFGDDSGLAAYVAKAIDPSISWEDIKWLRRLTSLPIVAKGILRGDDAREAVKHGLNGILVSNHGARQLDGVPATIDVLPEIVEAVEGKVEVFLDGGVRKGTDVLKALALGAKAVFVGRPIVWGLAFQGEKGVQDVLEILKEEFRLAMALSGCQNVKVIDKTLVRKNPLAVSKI

IC50 | Compound
2 nM | Cn1ccc(C#Cc2ccc(Oc3[nH]nnc3C(=O)O)cc2)cc1=O [Example 256, 4-(4-((1-Methyl-2-oxo-1,2-dihydropyridin-4-yl)ethynyl)phenoxy)-1H-1,2,3-triazole-5-carboxylic Acid]
4 nM | O=C(O)c1nn[nH]c1Oc1ccc(C#Cc2ccncc2)cc1 [Example 310, 5-(4-(2-(Pyridin-4-yl)ethynyl)phenoxy)-1H-1,2,3-triazole-4-carboxylic Acid]
48 nM | CC(C)(O)C#Cc1cccc(Oc2[nH]nnc2C(=O)O)c1 [Example 215, 5-(3-(3-Hydroxy-3-methylbut-1-ynyl)phenoxy)-1H-1,2,3-triazole-4-carboxylic Acid]
25 nM | O=C(O)c1nn[nH]c1Oc1ccc(C#Cc2ncccn2)cc1 [Example 336, 5-(4-(2-(Pyrimidin-2-yl)ethynyl)phenoxy)-1H-1,2,3-triazole-4-carboxylic Acid]
3 nM | Cc1ccc(C#Cc2ccc(Oc3[nH]nnc3C(=O)O)cc2)cn1 [Example 297, 5-(4-(2-(6-Methylpyridin-3-yl)ethynyl)phenoxy)-1H-1,2,3-triazole-4-carboxylic Acid]
4 nM | O=C(O)c1nn[nH]c1Oc1cccc(C#Cc2cnccn2)c1 [Example 338, 5-(3-(2-(Pyrazin-2-yl)ethynyl)phenoxy)-1H-1,2,3-triazole-4-carboxylic Acid]
440 nM | CC(C)(O)C#Cc1ccc(Oc2[nH]nnc2C(=O)O)cc1 [Example 13, 5-(4-(3-Hydroxy-3-methylbut-1-ynyl)phenoxy)-1H-1,2,3-triazole-4-carboxylic Acid]
1 nM | O=C(O)c1nn[nH]c1Oc1ccc(C#Cc2ccccc2)c(F)c1 [Example 146, 5-(3-Fluoro-4-(2-phenylethynyl)phenoxy)-1H-1,2,3-triazole-4-carboxylic Acid]
20 nM | COc1ccc(Oc2[nH]nnc2C(=O)O)cc1C#Cc1ccccc1 [Example 264, 5-(4-Methoxy-3-(2-phenylethynyl)phenoxy)-1H-1,2,3-triazole-4-carboxylic Acid]
1 nM | O=C(O)c1nn[nH]c1Oc1ccc(F)c(C#Cc2ccccc2)c1 [Example 259, 5-(4-Fluoro-3-(2-phenylethynyl)phenoxy)-1H-1,2,3-triazole-4-carboxylic Acid]
6 nM | O=C(O)c1nn[nH]c1Sc1ccc(C#CCC2CC2)cc1 [Example 355, 5-(4-(3-Cyclopropylprop-1-ynyl)phenylthio)-1H-1,2,3-triazole-4-carboxylic Acid]
9 nM | O=C(O)c1nn[nH]c1Oc1ccc(C#CC2CCCCC2)cc1 [Example 36, 5-(4-(2-Cyclohexylethynyl)phenoxy)-1H-1,2,3-triazole-4-carboxylic Acid]
2 nM | O=C(O)c1nn[nH]c1Oc1cccc(C#Cc2cccc(F)c2)c1 [Example 279, 5-(3-(2-(3-Fluorophenyl)ethynyl)phenoxy)-1H-1,2,3-triazole-4-carboxylic Acid]
28 nM | O=C(O)c1nn[nH]c1Oc1ccc(C#Cc2nccs2)cc1 [Example 341, 5-(4-(2-(Thiazol-2-yl)ethynyl)phenoxy)-1H-1,2,3-triazole-4-carboxylic Acid]
> 1000 nM | O=C(O)c1nonc1Oc1ccc(C#CCC2CC2)cc1 [Example 369, 4-(4-(3-Cyclopropylprop-1-ynyl)phenoxy)-1,2,5-oxadiazole-3-carboxylic Acid]
1 nM | Cc1cc(C#Cc2cccc(Oc3[nH]nnc3C(=O)O)c2)ccn1 [Example 296, 5-(3-(2-(2-Methylpyridin-4-yl)ethynyl)phenoxy)-1H-1,2,3-triazole-4-carboxylic Acid]

IC50 | Compound
2 nM | Cn1ncc2cc(C#Cc3ccc(Oc4[nH]nnc4C(=O)O)cc3)ccc21 [Example 316, 5-(4-(2-(1-Methyl-1H-indazol-5-yl)ethynyl)phenoxy)-1H-1,2,3-triazole-4-carboxylic Acid]
6 nM | O=C(O)c1nn[nH]c1Oc1cccc(C#Cc2ncccn2)c1 [Example 165, 5-(3-(2-(Pyrimidin-2-yl)ethynyl)phenoxy)-1H-1,2,3-triazole-4-carboxylic Acid]
40 nM | O=C(O)c1nn[nH]c1Oc1ccc(C#CC2CCOCC2)cc1 [Example 40, 5-(4-(2-(Tetrahydro-2H-pyran-4-yl)ethynyl)phenoxy)-1H-1,2,3-triazole-4-carboxylic Acid]
2 nM | O=C(O)c1nn[nH]c1Oc1cc(F)cc(C#Cc2ccccc2)c1 [Example 258, 5-(3-Fluoro-5-(2-phenylethynyl)phenoxy)-1H-1,2,3-triazole-4-carboxylic Acid]
3 nM | Cc1cc(C#Cc2ccc(Oc3[nH]nnc3C(=O)O)cc2)ccn1 [Example 298, 5-(4-(2-(2-Methylpyridin-4-yl)ethynyl)phenoxy)-1H-1,2,3-triazole-4-carboxylic Acid]
> 1000 nM | O=C(O)c1nonc1Oc1cccc(C#CCC2CC2)c1 [Example 370, 4-(3-(3-Cyclopropylprop-1-ynyl)phenoxy)-1,2,5-oxadiazole-3-carboxylic Acid]
5 nM | O=C(O)c1nn[nH]c1Oc1ccc(C#Cc2cccc3cn[nH]c23)cc1 [Example 323, 5-(4-(2-(1H-Indazol-7-yl)ethynyl)phenoxy)-1H-1,2,3-triazole-4-carboxylic Acid]
4 nM | O=C(O)c1nn[nH]c1Oc1ccc(C#Cc2cccnn2)cc1 [Example 339, 5-(4-(2-(Pyridazin-3-yl)ethynyl)phenoxy)-1H-1,2,3-triazole-4-carboxylic Acid]
3 nM | CS(=O)(=O)c1cccc(C#Cc2ccc(Oc3[nH]nnc3C(=O)O)cc2)c1 [Example 254, 5-(4-(2-(3-(Methylsulfonyl)phenyl)ethynyl)phenoxy)-1H-1,2,3-triazole-4-carboxylic Acid]
2 nM | COc1cccc(C#Cc2ccc(Oc3[nH]nnc3C(=O)O)cc2)c1 [Example 286, 5-(4-(2-(3-Methoxyphenyl)ethynyl)phenoxy)-1H-1,2,3-triazole-4-carboxylic Acid]
7 nM | O=C(O)c1nn[nH]c1Oc1ccc(C#Cc2cnccn2)cc1 [Example 337, 5-(4-(2-(Pyrazin-2-yl)ethynyl)phenoxy)-1H-1,2,3-triazole-4-carboxylic Acid]
3 nM | COc1cc(C#Cc2cccc(Oc3[nH]nnc3C(=O)O)c2)ccn1 [Example 285, 5-(3-(2-(2-Methoxypyridin-4-yl)ethynyl)phenoxy)-1H-1,2,3-triazole-4-carboxylic Acid]
1 nM | O=C(O)c1nn[nH]c1Oc1ccc(C#Cc2cccc(F)c2)cc1 [Example 278, 5-(4-(2-(3-Fluorophenyl)ethynyl)phenoxy)-1H-1,2,3-triazole-4-carboxylic Acid]
> 1000 nM | CCOC(=O)c1nn[nH]c1[S+]([O-])c1cccc(C#CCC(C)C)c1 (centres unmarked) [Example 373, Ethyl 5-(3-(4-methylpent-1-ynyl)phenylsulfinyl)-1H-1,2,3-triazole-4-carboxylate]
> 1000 nM | CCOC(=O)c1nn[nH]c1S(=O)(=O)c1cccc(C#CCC(C)C)c1 [Example 375, Ethyl 5-(3-(4-methylpent-1-ynyl)phenylsulfonyl)-1H-1,2,3-triazole-4-carboxylate]
> 1000 nM | CCOC(=O)c1nn[nH]c1Oc1cccc(C#CCC2CC2)c1 [Example 357, Ethyl 5-(3-(3-cyclopropylprop-1-ynyl)phenoxy)-1H-1,2,3-triazole-4-carboxylate]
